In patent US20210346359A1, “Use of CFTR Modulators For Treating Cerebrovascular Conditions” (Qanatpharma AG, priority 2018, published 2021):
Entries after “also recorded” stand apart in the source; their conditions may differ.

Legend:
CFTR [1] = target: T1, CFTR (Mus musculus, UniProt P26361); test: Forskolin-stimulated iodide efflux in vascular smooth muscle cells; assay type: cell-based; set-up: mesenteric artery segments were isolated, cut into small pieces and digested with trypsin, collagenase and elastase; endogenous in cells; host or cells: primary mesenteric artery vascular smooth muscle cells; conditions: primary vascular smooth muscle cells; 48 h TNF 10 ng/ml + C18 6 μmol/L for last 24 h
T1 sequence (P26361 whole entry): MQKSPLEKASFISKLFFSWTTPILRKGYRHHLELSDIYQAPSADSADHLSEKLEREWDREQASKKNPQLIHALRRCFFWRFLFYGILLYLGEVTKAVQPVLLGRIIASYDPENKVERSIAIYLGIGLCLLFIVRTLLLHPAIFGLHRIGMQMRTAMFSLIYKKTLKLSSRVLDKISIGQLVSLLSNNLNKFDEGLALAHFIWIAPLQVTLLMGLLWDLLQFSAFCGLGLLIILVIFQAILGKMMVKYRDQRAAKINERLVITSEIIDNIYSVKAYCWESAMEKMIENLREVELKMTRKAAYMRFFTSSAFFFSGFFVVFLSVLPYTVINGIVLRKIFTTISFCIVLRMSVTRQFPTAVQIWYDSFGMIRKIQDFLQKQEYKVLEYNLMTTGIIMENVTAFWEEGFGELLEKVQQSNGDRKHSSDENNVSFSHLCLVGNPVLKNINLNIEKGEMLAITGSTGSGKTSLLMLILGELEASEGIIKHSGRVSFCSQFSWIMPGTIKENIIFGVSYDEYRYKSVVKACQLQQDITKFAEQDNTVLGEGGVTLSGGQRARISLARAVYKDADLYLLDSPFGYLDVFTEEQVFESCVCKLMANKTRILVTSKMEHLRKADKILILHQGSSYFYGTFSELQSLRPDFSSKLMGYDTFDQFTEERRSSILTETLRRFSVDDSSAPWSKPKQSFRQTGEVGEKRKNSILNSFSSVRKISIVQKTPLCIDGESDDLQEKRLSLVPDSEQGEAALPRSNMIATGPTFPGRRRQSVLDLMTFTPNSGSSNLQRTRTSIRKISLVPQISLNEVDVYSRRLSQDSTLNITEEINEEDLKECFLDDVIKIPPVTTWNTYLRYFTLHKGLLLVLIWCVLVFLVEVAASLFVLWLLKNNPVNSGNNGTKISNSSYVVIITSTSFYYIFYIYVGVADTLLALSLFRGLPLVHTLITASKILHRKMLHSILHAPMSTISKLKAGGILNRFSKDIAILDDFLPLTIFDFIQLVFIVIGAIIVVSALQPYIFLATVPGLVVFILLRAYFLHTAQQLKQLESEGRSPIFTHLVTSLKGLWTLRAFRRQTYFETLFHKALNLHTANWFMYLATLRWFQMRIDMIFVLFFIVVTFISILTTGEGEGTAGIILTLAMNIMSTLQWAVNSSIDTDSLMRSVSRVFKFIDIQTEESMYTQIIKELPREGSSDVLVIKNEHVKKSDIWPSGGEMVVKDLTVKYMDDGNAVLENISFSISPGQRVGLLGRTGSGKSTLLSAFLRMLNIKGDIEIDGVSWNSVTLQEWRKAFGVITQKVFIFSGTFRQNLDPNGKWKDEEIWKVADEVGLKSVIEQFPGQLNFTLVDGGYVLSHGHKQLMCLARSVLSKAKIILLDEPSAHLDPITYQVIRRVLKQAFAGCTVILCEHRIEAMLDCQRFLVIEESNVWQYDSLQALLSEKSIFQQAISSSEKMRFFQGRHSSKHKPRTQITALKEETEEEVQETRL
Experimental: Procedures for isolating and culturing mesenteric artery smooth muscle cells were carried out as described in (10). Briefly, mesenteric artery segments were isolated, cut into small pieces and digested with trypsin, collagenase and elastase. The resulting cell suspension was washed several times in phosphate-buffered saline and plated in Dulbecco's Modified Eagle Medium (DMEM) culture media containing 10% fetal bovine serum and 1% penicillin-streptomycin. Cell cultures were maintained at 37° C. with 5% CO2 and split at 106 cells seeding density. […]
Iodide efflux measurements were conducted as previously described (18). […] Supernatant iodide levels were quantified with an iodide-selective electrode (Lazar Research Laboratories; Los Angeles, USA), calibrated with Nal standards. Pre-stimulation iodide levels were determined and then cells were stimulated with a cocktail containing 10 μmol/L forskolin, 1 mmol/L isobutylmethylxanthine and 100 μmol/L cpt-cAMP (in 1% v/v DMSO). […] Supernatant iodide levels were determined over seven consecutive 1-minute intervals post-stimulation. […] The maximum efflux rate, therefore, was calculated using the measured efflux level between 60-120 seconds post-stimulation (18).

CFTR [2] = target: T1, CFTR; test: CFTR protein in cerebral arteries of mice with heart failure; assay type: in vivo; set-up: Cerebral artery lysates were prepared by grinding artery samples in lysis buffer; from tissue; host or cells: cerebral arteries of male wild-type C57BL/6N mice (naïve, heart failure or subarachnoid hemorrhage models); conditions: 6 weeks post-ligation, 3 mg/kg daily for 2 days
Experimental: Western blots for CFTR were completed as previously described (12, 18). Cerebral artery lysates were prepared by grinding artery samples in lysis buffer containing 50 mM Tris (pH 7.3), 150 mM NaCl, 2 mM […], 0.1% Triton-X-100, 0.1% […] and protease inhibitors; the same lysis buffer was used to prepare cell culture lysates. Following lysis, the samples were centrifuged (10 minutes at 13,500 g; at 4° C.) to remove insoluble material. Immediately prior to polyacrylamide electrophoresis, additional SDS (to 2% final concentration), glycerol (to 2% final concentration), β-mercaptoethanol (to 2% final concentration) and dithiothreitol (2 mM final concentration) were added. Proteins were separated electrophoretically on 7% acrylamide gels and transferred onto polyvinylidene difluoride (PVDF) membranes. […]
The primary antibodies were conjugated with either peroxidase-labeled donkey anti-rabbit IgG (GE Healthcare Amersham (Piscataway, USA) cat# NA934) or peroxidase-labeled goat anti-mouse IgG (GE Healthcare Amersham cat# NA931) secondary antibodies. […] Developed films were evaluated densitometrically using “Image J” software (freely available from the NIH); digital images were evaluated with Image Lab software (Bio-Rad). […]

O=C(Nc1ncc(C(c2ccccc2Cl)N2CCC(O)C2)s1)C1(c2ccc3c(c2)OCO3)CC1 (centres unmarked) [C18, 1-(benzo[d][1,3]dioxol-5-yl)-N-(5-((2-chlorophenyl)(3-hydroxypyrrolidin-1-yl)methyl)thiazol-2-yl)cyclopropanecarboxamide]
forskolin-stimulated iodide efflux after TNF (CFTR [1]): fully restores; also recorded: normalization
cerebral artery CFTR protein expression in HF (CFTR [2]): restores; also recorded: eliminates this reduction
